According to patent EP4653435A1, “PRMT5-MTA INHIBITOR” (Suzhou Puhe Biopharma Co., Ltd., priority 2023, dated 2024):

Tests used:
HCT116-MTAPwt = assay: 2D antiproliferative assay (CTG cell viability), wild-type cells; type: cell-based; conditions: Homo sapiens, HCT-116, 7-10 days
Experimental: (§1) HCT116 wild-type and MTAP-deficient cells were cultured in McCoy's 5A medium containing 10% FBS and 1% penicillin-streptomycin, and cultured in a 37°C, 5% CO2 constant temperature incubator. 40 µL of cell suspension was introduced into each well of a 384-well microplate. 40 nL of different concentrations of test compounds were added to each well using an Echo, before culturing in a 37°C, 5% CO2 constant temperature incubator for 7-10 days. 40 µL of CTG solution (Promega, Cat No. G7573) was added to each well and incubated in a 37°C, 5% CO2 constant temperature incubator for 30 minutes in the dark.

in vitro [1] = conditions: human, microsomes
Experimental: (§7) The compounds to be tested were co-incubated with liver microsomes of different species with or without the addition of NADPH. The final concentration of the test compounds in the test system was 1 µM, the final concentration of NADPH was 1 mM, and the final concentration of liver microsomes was 0.5 mg/mL.

HCT116-MTAPdel = assay: 2D antiproliferative assay (CTG cell viability), MTAP-deficient cells; type: cell-based; conditions: for IC50: Homo sapiens, HCT-116, HCT116 MTAP-deficient cells, 7-10 days, CTG, read-out: HCT116-MTAPdel/IC50/nM; for HCT116WT IMTAPdel selectivity: ratio IC50 wild type / MTAPdel, antiproliferation
Experimental: as §1

[2] = Liver microsomal stability assay, mouse; type: in vitro ADME; conditions: mouse liver microsomes 0.5 mg/mL, compound 1 µM, NADPH 1 mM, 60 minute
Experimental: as §7

[3] = system: NCI-H838 (MTAPdel) non-small cell lung adenocarcinoma tumor cells; assay: In vivo efficacy, NCI-H838 subcutaneous xenograft; parameters: species or system BALB/c nude mice; conditions: BID, oral; for TGI: 23 consecutive days; for Tumor volume (mm^3)-D1: D1 (baseline at start of dosing)
Experimental: NCI-H838 (MTAPdel) non-small cell lung adenocarcinoma tumor cells were cultured and inoculated into 6-8 week old female BALB/c nude mice (weighing about 20 g), with all mice inoculated subcutaneously. The mice were cultured in an SPF-grade environment, and all mice had free access to commercially certified standard diets. Test compounds were orally administered daily once the average tumor volume of the mice grew to about 140 mm^3. The control group received blank solvent (saline containing 0.1% Tween 80 and 0.5% methyl cellulose), while the test group received a drug dose of 75 mg/kg or 100 mg/kg, twice a day. Tumor volume was measured in two dimensions with calipers three times a week, and the animals were weighed every day. […] Volume calculation formula: V=1/2a*b^2, where a denotes the long diameter of the tumor, and b the short diameter of the tumor.

SDMA/HCT116-MTAPdel = assay: In-cell arginine symmetric dimethylation inhibition (In-cell western, ICW), MTAP-deficient cells; type: cell-based
Experimental: (§2) 60 nL of different concentrations of compounds were added to each well using an Echo, and incubated at 37°C, 5% CO2 for 96 hours.
(§3) Next, 50 µL of 4% paraformaldehyde solution was added to each well and incubated at room temperature for 20 minutes to fix the cells. The solution in the wells was removed, and each well was rinsed four times with PBS solution containing 0.1% Tween 20 (PBST). To each well was then added 30 µL of ice-cold methanol. After standing at -20°C for 10 minutes, the methanol was removed and the wells washed four times with PBST. 30 µL of Odyssey blocking solution containing 0.5% Tween 20 was added to each well and shaken for 2 hours at room temperature. The blocking solution was removed and 30 µL of primary antibody (Symmetric Di-Methyl Arginine Motif [sdma-RG] MultiMab™ Rabbit mAb mix) diluted at 1:500 in Odyssey blocking solution containing 0.5% Tween 20 was added to each well. The plates were incubated overnight at 4°C, before removing the primary antibody and rinsing each well four times with PBST, 5 minutes per rinse. Secondary antibody (goat anti-rabbit IRDye 800CW, 1:800) and nuclear stain (DRAQ5, 1:10000) diluted in Odyssey blocking solution containing 0.5% Tween 20 were then added to each well before incubating at room temperature for 2 hours in the dark. The secondary antibody was removed, and the wells rinsed four times with PBST.
(§4) The sdme-RG and DRAQ5 signals were scanned at 800 nm and 700 nm respectively on a Li-Cor Odyssey instrument and the signal values recorded. The sdme-RG/DRAQ5 ratio was used to calculate the percentage inhibition of arginine symmetric dimethylation (SDMA), and the IC50 value calculated using GraphPad Prism software.

SDMA/HCT116-MTAPwt = assay: In-cell arginine symmetric dimethylation inhibition (In-cell western, ICW), wild-type cells; type: cell-based; conditions: Homo sapiens, HCT-116, 96 hours
Experimental: as §2, §3, §4

[4] = Mouse pharmacokinetics testing; type: in vivo, CD1 female mice; conditions: female, CD1, mouse, in vivo
Experimental: CD1 female mice were used as test animals and administered the compounds orally/intravenously (oral dosage was 10 mg/kg and intravenous dosage was 2 mg/kg). Test protocol: Each oral and intravenous group consisted of three mice. […] Plasma drug concentrations after oral and intravenous administration were determined by LC/MS/MS, and the collected data analyzed using AB Sciex QTRAP 6500 software.

in vitro [5] = conditions: dog, MDCK-MDR1, pH 7.4
Experimental: (§5) The membrane permeability of the molecules of the present invention was evaluated to predict their permeability to the brain.
(§6) The specific procedure was: 1. MDCK-MDR1 cells were pre-cultured at a density of 1.56*10^6 cells/mL in a 96-well plate at 37°C for 7 days. 2. The MDCKII-MDR1 plate was taken out of the incubator, rinsed twice with pre-warmed HBSS (10 mM HEPES, pH 7.4), and then incubated at 37°C for 30 minutes. 3. The stock solution of the compound to be tested was diluted with DMSO to obtain a 0.2 mM solution, and then diluted with HBSS (10 mM HEPES, pH 7.4) to obtain a 1 µM working solution. A blank control group was also diluted with DMSO to obtain a 0.2 mM solution, and then diluted with HBSS (10 mM HEPES, pH 7.4) to obtain a 1 µM working solution. The final concentration of DMSO in the culture system was 0.5%. 4. The transport rate of the drug in the apical to basolateral direction was determined: 125 µL of the 1 µM test compound solution was added to a Transwell insert (top compartment), before immediately transferring a 50 µL sample (D0 sample) from the top comparment to a new 96-well plate. The receiving plate wells (basolateral compartment) were filled with 235 µL HBSS (10 mM HEPES, pH 7.4) and incubated at 37°C for 2 hours. 5. Upon completion of the incubation, 50 µL samples were transferred from the donor and acceptor sides to the wells of a new 96-well plate, before adding 4 volumes of cold acetonitrile containing an appropriate internal standard (IS). Prior to LC-MS/MS analysis, 100 µL of the supernatant was taken and mixed with an appropriate volume of ultrapure water. Papp = (VA×[drug]acceptor)/(Area×Time×[drug]initial,donor) [formula] where VA is the volume of the receptor pores (unit:mL), Area is the surface area of the membrane (0.143 cm^2 for a Transwell-96 well permeable support), and time is the total transport time in seconds. Efflux Ratio = Papp(B−A) /Papp(A−B) [formula]

MDR1 (P-gp) = assay: in vitro; conditions: dog, MDCK-MDR1, pH 7.4
Experimental: as §5, §6

[6] = Liver microsomal stability assay, human; conditions: liver microsomes
Experimental: as §7

CN(C(=O)C(=O)Nc1cnc(N)c2c1cnn2C)C1COc2cc(SC(F)(F)F)ccc21 (racemic) [Compound P29]
IC50 (HCT116-MTAPwt): 3300 nM
CLint scaled at 1 h, 1 µM (in vitro [1]): 25.9 mL/min/kg
IC50 (HCT116-MTAPdel): 20 nM
HCT116WT IMTAPdel selectivity (HCT116-MTAPdel): 165

CN(C(=O)C(=O)Nc1cnc(N)c2c1cnn2C)[C@@H]1COc2cc(C(F)(F)F)ccc21 [Compound P2a]
CLint scaled at 1 µM [2]: 55 mL/min/kg
IC50 (HCT116-MTAPwt): 1080 nM
TGI ([3]; 75 mg/kg): 92%
Tumor volume (mm^3)-D1 ([3]; 75 mg/kg): 140 mm^3
Tumor volume (mm^3)-D23 ([3]; 75 mg/kg): 350 mm^3
TGI ([3]; 100 mg/kg): 97%
Tumor volume (mm^3)-D1 ([3]; 100 mg/kg): 140 mm^3
Tumor volume (mm^3)-D23 ([3]; 100 mg/kg): 180 mm^3
IC50 (HCT116-MTAPdel): 5 nM
HCT116WT IMTAPdel selectivity (HCT116-MTAPdel): 216
IC50 (SDMA/HCT116-MTAPdel; Homo sapiens, HCT-116, HCT116 MTAP-deficient cells, 96 hours): 0.5 nM
Selectivity wt/MTAPdel (SDMA/HCT116-MTAPdel; ratio SDMA IC50 wt / MTAPdel): 3054
IC50 (SDMA/HCT116-MTAPwt): 1530 nM
F [4]: 69%
AUC(0-t) ([4]; iv, 2 mg/kg): 402 ng·h/mL
C0 ([4]; iv, 2 mg/kg): 345 ng/mL
clearance ([4]; iv, 2 mg/kg): 82.4 mL/min/kg
half-life ([4]; iv, 2 mg/kg): 1.2 h
AUC(0-t) ([4]; po, 10 mg/kg): 1380 ng·h/mL
Cmax ([4]; po, 10 mg/kg): 707 ng/mL
Tmax ([4]; po, 10 mg/kg): 0.25 h
half-life ([4]; po, 10 mg/kg): 1.2 h
Papp A→B (in vitro [5]): 14.8 ×10⁻⁶ cm/s
Papp B→A (in vitro [5]): 22.1 ×10⁻⁶ cm/s
efflux ratio (MDR1 (P-gp)): 1.5
CLint scaled at 1 µM [6]: 7.4 mL/min/kg
